# In ChEMBL document CHEMBL3045612, “Solvent- and catalyst-free synthesis of bis-adducts of 3-formylchromone as potential antimicrobial agents” (2013):
# What was measured:
# [1] = system: Talaromyces marneffei; experiment: Fungicidal activity against Talaromyces marneffei after 48 hr; format: functional
# [2] = system: Aspergillus fumigatus; experiment: Fungicidal activity against Aspergillus fumigatus after 48 hr; format: functional
# [3] = system: Trichophyton mentagrophytes; experiment: Fungicidal activity against Trichophyton mentagrophytes after 48 hr; format: functional
# [4] = system: Candida albicans; experiment: Fungicidal activity against Candida albicans after 48 hr; format: functional
# [5] = system: Talaromyces marneffei; experiment: Antifungal activity against Talaromyces marneffei assessed as growth inhibition after 48 hr by macrodilution method; format: functional
# [6] = system: Trichophyton mentagrophytes; experiment: Antifungal activity against Trichophyton mentagrophytes assessed as growth inhibition after 48 hr by macrodilution method; format: functional
# [7] = system: Aspergillus fumigatus; experiment: Antifungal activity against Aspergillus fumigatus assessed as growth inhibition after 48 hr by macrodilution method; format: functional
# [8] = system: Candida albicans; experiment: Antifungal activity against Candida albicans assessed as growth inhibition after 48 hr by macrodilution method; format: functional
# [9] = system: Talaromyces marneffei; experiment: Antifungal activity against Talaromyces marneffei assessed as growth inhibition after 3 to 4 days by halo zone test; format: functional
# [10] = system: Trichophyton mentagrophytes; experiment: Antifungal activity against Trichophyton mentagrophytes assessed as growth inhibition after 3 to 4 days by halo zone test; format: functional
# [11] = system: Candida albicans; experiment: Antifungal activity against Candida albicans assessed as growth inhibition after 3 to 4 days by halo zone test; format: functional
# [12] = system: Aspergillus fumigatus; experiment: Antifungal activity against Aspergillus fumigatus assessed as growth inhibition after 3 to 4 days by halo zone test; format: functional
# [13] = system: Talaromyces marneffei; experiment: Antifungal activity against Talaromyces marneffei assessed as growth inhibition after 3 to 4 days by disk diffusion assay; format: functional
# [14] = system: Klebsiella pneumoniae; experiment: Antibacterial activity against Klebsiella pneumoniae clinical isolate assessed as growth inhibition after 24 hr by disk diffusion assay; format: functional
# [15] = system: Pseudomonas aeruginosa; experiment: Antibacterial activity against Pseudomonas aeruginosa ATCC 27853 assessed as growth inhibition after 24 hr by disk diffusion assay; format: functional
# [16] = system: Trichophyton mentagrophytes; experiment: Antifungal activity against Trichophyton mentagrophytes assessed as growth inhibition after 3 to 4 days by disk diffusion assay; format: functional
# [17] = system: Aspergillus fumigatus; experiment: Antifungal activity against Aspergillus fumigatus assessed as growth inhibition after 3 to 4 days by disk diffusion assay; format: functional
# [18] = system: Candida albicans; experiment: Antifungal activity against Candida albicans assessed as growth inhibition after 3 to 4 days by disk diffusion assay; format: functional
# [19] = system: Escherichia coli; experiment: Bactericidal activity against Escherichia coli ATCC 25922 after 18 to 24 hr; format: functional
# [20] = system: Klebsiella pneumoniae; experiment: Bactericidal activity against Klebsiella pneumoniae clinical isolate after 18 to 24 hr; format: functional
# [21] = system: Pseudomonas aeruginosa; experiment: Bactericidal activity against Pseudomonas aeruginosa ATCC 27853 after 18 to 24 hr; format: functional
# [22] = system: Staphylococcus aureus; experiment: Bactericidal activity against methicillin-resistant Staphylococcus aureus after 18 to 24 hr; format: functional
# [23] = system: Streptococcus pyogenes; experiment: Bactericidal activity against Streptococcus pyogenes after 18 to 24 hr; format: functional
# [24] = system: Escherichia coli; experiment: Antibacterial activity against Escherichia coli ATCC 25922 assessed as growth inhibition after 24 hr by macrodilution method; format: functional; details: ATCC 25922, 24 h
# [25] = system: Klebsiella pneumoniae; experiment: Antibacterial activity against Klebsiella pneumoniae clinical isolate assessed as growth inhibition after 24 hr by macrodilution method; format: functional
# [26] = system: Pseudomonas aeruginosa; experiment: Antibacterial activity against Pseudomonas aeruginosa ATCC 27853 assessed as growth inhibition after 24 hr by macrodilution method; format: functional; details: ATCC 27853, 24 h
# [27] = system: Staphylococcus aureus; experiment: Antibacterial activity against methicillin-resistant Staphylococcus aureus assessed as growth inhibition after 24 hr by macrodilution method; format: functional
# [28] = system: Escherichia coli; experiment: Antibacterial activity against Escherichia coli ATCC 25922 assessed as growth inhibition after 24 hr by disk diffusion assay; format: functional
# [29] = system: Streptococcus pyogenes; experiment: Antibacterial activity against Streptococcus pyogenes assessed as growth inhibition after 24 hr by macrodilution method; format: functional
# [30] = system: Staphylococcus aureus; experiment: Antibacterial activity against methicillin-resistant Staphylococcus aureus assessed as growth inhibition after 24 hr by disk diffusion assay; format: functional
# [31] = system: Streptococcus pyogenes; experiment: Antibacterial activity against Streptococcus pyogenes assessed as growth inhibition after 24 hr by disk diffusion assay; format: functional
# [32] = system: Staphylococcus aureus; experiment: Antibacterial activity against methicillin-resistant Staphylococcus aureus assessed as growth inhibition at 30 ug after 24 hr by halo zone test; details: read-out: DIZ
# [33] = system: Pseudomonas aeruginosa; experiment: microbe, parasite or virus in culture; details: ATCC 27853, 24 h, read-out: DIZ
# Description: Antibacterial activity against Pseudomonas aeruginosa ATCC 27853 assessed as growth inhibition at 30 ug after 24 hr by halo zone test
# [34] = system: Escherichia coli; experiment: microbe, parasite or virus in culture; details: ATCC 25922, 24 h, read-out: DIZ
# Description: Antibacterial activity against Escherichia coli ATCC 25922 assessed as growth inhibition at 30 ug after 24 hr by halo zone test
SMILES,MFC [1] [µg/mL],MFC [2] [µg/mL],MFC [3] [µg/mL],MFC [4] [µg/mL],MIC [5] [µg/mL],MIC [6] [µg/mL],MIC [7] [µg/mL],MIC [8] [µg/mL],diameter of the inhibition zone (DIZ) [13] [mm],diameter of the inhibition zone (DIZ) [14] [mm],diameter of the inhibition zone (DIZ) [15] [mm],diameter of the inhibition zone (DIZ) [16] [mm],diameter of the inhibition zone (DIZ) [17] [mm],diameter of the inhibition zone (DIZ) [18] [mm],MBC [19] [µg/mL],MBC [20] [µg/mL],MBC [21] [µg/mL],MBC [22] [µg/mL],MBC [23] [µg/mL],MIC [24] [µg/mL],further results
COC1=CC(=O)C[C@@H](C)[C@]12Oc1c(Cl)c(OC)cc(OC)c1C2=O [GRISEOFULVIN],25,12.5,25,25,12.5,6.25,12.5,6.25,,,,,,,,,,,,,diameter of the inhibition zone (DIZ) [9]: 20 mm; diameter of the inhibition zone (DIZ) [10]: 24 mm; diameter of the inhibition zone (DIZ) [11]: 30 mm; diameter of the inhibition zone (DIZ) [12]: 27 mm
Cc1cc(O)c(C(c2c(O)cc(C)oc2=O)c2coc3ccccc3c2=O)c(=O)o1,50,50,50,50,25,25,12.5,12.5,14.2,17.2,21.2,17.8,21.3,24.1,50,50,50,50,50,25,MIC [25]: 25 µg/mL; MIC [26]: 12.5 µg/mL; MIC [27]: 25 µg/mL; diameter of the inhibition zone (DIZ) [28]: 18.6 mm; MIC [29]: 25 µg/mL; diameter of the inhibition zone (DIZ) [30]: 18.5 mm; diameter of the inhibition zone (DIZ) [31]: 19.1 mm
Cc1[nH]n(-c2ccccc2)c(=O)c1C(c1coc2ccccc2c1=O)c1c(C)[nH]n(-c2ccccc2)c1=O,100,50,50,50,25,25,25,25,14.3,14.5,13.1,18.1,20.7,23.9,100,100,100,50,50,25,MIC [25]: 25 µg/mL; MIC [26]: 25 µg/mL; MIC [27]: 25 µg/mL; diameter of the inhibition zone (DIZ) [28]: 15.5 mm; MIC [29]: 25 µg/mL; diameter of the inhibition zone (DIZ) [30]: 15.6 mm; diameter of the inhibition zone (DIZ) [31]: 16.1 mm
O=c1oc2ccccc2c(O)c1C(c1c(O)c2ccccc2oc1=O)c1coc2ccccc2c1=O,100,50,50,100,25,25,25,25,13.1,17.3,26.4,19.3,16.7,19.1,50,50,50,50,50,25,MIC [25]: 12.5 µg/mL; MIC [26]: 25 µg/mL; MIC [27]: 25 µg/mL; diameter of the inhibition zone (DIZ) [28]: 22.1 mm; MIC [29]: 25 µg/mL; diameter of the inhibition zone (DIZ) [30]: 18.1 mm; diameter of the inhibition zone (DIZ) [31]: 21.5 mm
Cc1cc2oc(=O)c(C(c3c(O)c4cc(C)c(C)cc4oc3=O)c3coc4ccccc4c3=O)c(O)c2cc1C,25,25,50,25,12.5,12.5,12.5,12.5,14.8,19.3,23.3,19.4,22.1,27.2,50,50,25,25,25,25,MIC [25]: 12.5 µg/mL; MIC [26]: 12.5 µg/mL; MIC [27]: 12.5 µg/mL; diameter of the inhibition zone (DIZ) [28]: 20.8 mm; MIC [29]: 12.5 µg/mL; diameter of the inhibition zone (DIZ) [30]: 20.7 mm; diameter of the inhibition zone (DIZ) [31]: 21.2 mm
O=C(O)c1cn(C2CC2)c2cc(N3CCNCC3)c(F)cc2c1=O [CIPROFLOXACIN],,,,,,,,,,,,,,,,,,,,,zone of inhibition at 30 µg/disc [32]: 22 mm; zone of inhibition at 30 µg/disc [33]: 32 mm; zone of inhibition at 30 µg/disc [34]: 27 mm
